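Five compound concentrations were applied to cells in 96-well plates for 48 hours; endpoints were derived by simple linear interpolation of the resulting dose-response curve. The concentration for full growth arrest is given as TGI.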
What was measured:
Experiment in all cases: growth of human tumour cells (NCI), 48 h
K-562 leukemia = tested on: K-562 leukemia
UACC-257 melanoma = tested on: UACC-257 melanoma
SW-620 colon = tested on: SW-620 colon
HOP-62 NSCLC = tested on: HOP-62 NSCLC
OVCAR-4 ovarian = tested on: OVCAR-4 ovarian
BT-549 breast = tested on: BT-549 breast
CCRF-CEM leukemia = tested on: CCRF-CEM leukemia
KM12 colon = tested on: KM12 colon
HS 578T breast = tested on: HS 578T breast
OVCAR-5 ovarian = tested on: OVCAR-5 ovarian
COLO 205 colon = tested on: COLO 205 colon
HCT-15 colon = tested on: HCT-15 colon
SF-268 CNS = tested on: SF-268 CNS
OVCAR-3 ovarian = tested on: OVCAR-3 ovarian
MCF7 breast = tested on: MCF7 breast
T-47D breast = tested on: T-47D breast

SMILES	TGI (K-562 leukemia) [µM]	TGI (UACC-257 melanoma) [µM]	TGI (SW-620 colon) [µM]	TGI (HOP-62 NSCLC) [µM]	TGI (OVCAR-4 ovarian) [µM]	TGI (BT-549 breast) [µM]	TGI (CCRF-CEM leukemia) [µM]	TGI (KM12 colon) [µM]	TGI (HS 578T breast) [µM]	TGI (OVCAR-5 ovarian) [µM]	TGI (COLO 205 colon) [µM]	TGI (HCT-15 colon) [µM]	TGI (SF-268 CNS) [µM]	TGI (OVCAR-3 ovarian) [µM]	TGI (MCF7 breast) [µM]	TGI (T-47D breast) [µM]
CC1OC(=O)c2ccccc2NC1=O (centres undefined)	> 100	> 100	> 100	> 100	> 100	> 100	> 100	> 100	> 100	> 100	> 100	> 100	> 100	> 100		
N#Cc1c(-c2ccc(Cl)cc2)c(C#N)c(=O)n(NS(=O)(=O)c2ccccc2)c1-c1ccccc1	> 25	> 25	> 25	> 25	> 25	> 25	> 25			> 25	> 25	> 25			> 25	
O=C(NC(Nc1ccc(F)c(Cl)c1)(C(F)(F)F)C(F)(F)F)C(C(F)(F)F)C(F)(F)F	77.1	> 100	> 100	> 100	88.9		73.9	> 100	64.7	78.1	74.4	> 100	> 100	> 100	> 100	> 100
CC(C)[Si](OC1=CCCCCC12C(=O)N(C)c1ccccc12)(C(C)C)C(C)C (centres undefined)	> 100	45.8	35.6	58.1	> 100		36.5	38	61.6	33.2	35.8	33.8	48.1	31.8	34	21.3
C=C1C(=O)OC2/C=C(\C)C(O)/C=C\C(C)(O)CC(OC(=O)/C(C)=C/C)C12 (centres undefined)	> 84.6	> 77.1	34.4	> 100	> 100		> 61.7	> 100		> 100	28.9	33.8	> 100	46.2		
CSC(=NCCN=C(NS(=O)(=O)c1ccc(Cl)cc1)SC)NS(=O)(=O)c1ccc(Cl)cc1	> 100	> 100	> 100	87.8	> 100		> 100			> 100	> 100	> 100	68.7	> 100	> 100	
CCOC(=O)C12CC1(C(=O)OCC)C1CCC2C1 (centres undefined)	> 100	> 100	> 100	> 100	> 100		> 100			> 100	> 100	> 100	> 100	> 100		
CCC1(C)N=C(C(N)=O)c2ncn(N=C(C)C)c2N1 (centres undefined)	> 100	> 100	> 100	> 100	> 100		> 100	> 100	> 100	> 100	> 100	> 100	> 100	> 100		> 100
COc1cc(CC2c3cc(OC)c(OC)cc3CCN2C)c(Oc2cc3c(cc2OC)-c2c(OC)c(OC)c(OC)c4c2C(C3)N(C)CC4)cc1OC (centres undefined)	> 30.5	13.6	30.7	31.3	33.1		> 50.9	29.3		30.6	20.9	23.4	32.8	28.2		
O=C(NCc1ccccc1)c1cnc(Cl)cn1		> 100	> 100		> 100		62.6	> 100	> 100		> 100	82.4	> 100	> 100	> 100	> 100
O=C(/C=C/c1ccc(Cl)c(Cl)c1)Oc1ccc(/C=C2\CCCCC2=O)cc1		> 100	> 100	> 100	> 100		> 100	> 100	> 100	> 100	> 100	> 100	> 100	> 100	> 100	> 100
Nc1ncc(Cc2nc3ccccc3s2)s1	> 100	> 100	> 100	> 100	> 100		> 100	> 100	96.4	> 100	> 100	> 100	> 100	> 100	> 100	> 100
NNC(=O)c1n[nH]nc1SSc1n[nH]nc1C(=O)NN		> 100	> 100	> 100	> 100	> 100	> 100	> 100	> 100	> 100	> 100	> 100	> 100	> 100	> 100	
COc1ccc2c(c1)CC[C@@H]1C2CC[C@]2(C)C(=O)NC(=O)CC12 (some centres undefined)	> 100	> 100	> 100	> 100			> 100	> 100		> 100	> 100	> 100	> 100	> 100		
S=C(Nc1ccc(Br)cn1)NC12CC3CC(CC(C3)C1)C2	> 100	> 100	> 100	> 100	> 100		70.3	> 100		90.7	> 100	> 100	34.5	> 100	> 100	> 100
CSCCCCCCCCCCOc1ccc(C=C2C(=C(C#N)C#N)c3ccccc3C2=C(C#N)C#N)cc1	> 100	35.4	37.8	32.2	41.3		12.2	36.8	44.6	30.2		46.8	34.2	30	32.3	51.4
Cc1cc2c(-c3ccccc3)cc(=O)[nH]c2cc1N	> 100	> 100	> 100	> 100	> 100	> 100	> 100	> 100		> 100	> 100	> 100		> 100	> 100	> 100

SMILES	TGI (K-562 leukemia) [µM]	TGI (UACC-257 melanoma) [µM]	TGI (SW-620 colon) [µM]	TGI (HOP-62 NSCLC) [µM]	TGI (OVCAR-4 ovarian) [µM]	TGI (BT-549 breast) [µM]	TGI (CCRF-CEM leukemia) [µM]	TGI (KM12 colon) [µM]	TGI (HS 578T breast) [µM]	TGI (OVCAR-5 ovarian) [µM]	TGI (COLO 205 colon) [µM]	TGI (HCT-15 colon) [µM]	TGI (SF-268 CNS) [µM]	TGI (OVCAR-3 ovarian) [µM]	TGI (MCF7 breast) [µM]	TGI (T-47D breast) [µM]
Cc1ccc(S(=O)(=O)N/N=C2\C=C[C@]3(CC2)C(=O)N(C)c2ccccc23)cc1	> 100	> 100	> 100	> 100	> 100		> 100	> 100	> 100	> 100	> 100	> 100	> 100	> 100	> 100	> 100
COc1cc2c(c(OC)c1OC)C(=O)CC2N (centres undefined)	> 100	> 100	> 100		> 100	> 100	> 100	> 100	> 100	> 100	> 100	> 100	> 100	> 100	> 100	
CC(C)(C)OC(=O)NC(Cc1ccc([N+](=O)[O-])cc1)C(=O)NC(CCCCNC(=O)OCc1ccccc1)C(=O)ON1C(=O)CCC1=O (centres undefined)	73.1		> 100	> 100	> 100	> 100		> 100	> 100	> 100	> 100	> 100	> 100	> 100	> 100	
C=C(Cl)C(Cl)(CBr)CCC(Cl)C(C)(C)Cl (centres undefined)	29.3	3.79	4.75	4.04	3.88	20.1	29.2	1.94	0.284	7.41	10.5	14.7	2.92	3.34	3.56	
C/C(=N\Nc1ccc([N+](=O)[O-])cc1)C(=O)N(C)Nc1ccccc1	> 100	> 100	> 100	> 100	> 100		> 100	64.6			> 100	> 100		> 100		
CCCCCCCCCN1CCC(=O)C(C(=O)OC)C1 (centres undefined)		24.7	27.9	31.3	12.4		31.2	13.1	36.6	29	30.8	26.9	30.2	29.4	24.9	28.3
CCOC(=O)C(C)(C)Oc1ccc2c(-c3ccc(Cl)cc3)cc(=O)oc2c1	> 100	> 100	> 100	> 100	> 100		> 100				> 100	> 100	> 100	> 100		
CCN(CC)CCCNC(=O)Cc1ccccc1Nc1c(Cl)cccc1Cl	21.6	13.2	32.8	29.9	33.1		28.2	39.3		23.5	28.3	29.1	31.2	31.5		
O=c1c([Se]c2coc3ccccc3c2=O)coc2ccccc12	> 100	31.3	34.3	21.1	32.6		> 100	23.4		30.3	29.7	30.8	33.8	32		
C[N+]1(C)CN(c2ccccc2)C2(CCN(CCCC(=O)c3cccs3)CC2)C1=O	> 100	> 100	> 100	> 100	> 100		> 100	> 100	> 100	> 100	> 100	> 100	> 100	> 100	> 100	> 100
O=C1c2cc(CCl)sc2C(=O)c2ccsc21	0.478	0.327	0.387		0.336		1.22	3.03	0.498	3.31	2.68	1.48	0.676	0.52	0.406	0.562
C[C@@H]1C(O)CC[C@H](C)C12CC=CC2=O (some centres undefined)	> 100	> 100	> 100	> 100	> 100				> 100	> 100	> 100	> 100	> 100	> 100	> 100	> 100
Cc1ccc(/C=N/Nc2ncccn2)s1		> 100	> 100	> 100	> 100		> 100	> 100	> 100	> 100	> 100	> 100	> 100	> 100	> 100	> 100
Cc1ccc(N2C(=O)/C(=C3\Sc4c(nc(C)[nH]c4=O)N3c3ccccc3)SC2=S)cc1	95.8	> 100	> 100	25.9	> 100		> 100			> 100	> 100	> 100	> 100	47.7		
COc1ccc(C2S/C(=C\c3ccc(OC)cc3OC)C(=O)N2NC(=O)Cc2ccccc2)cc1 (centres undefined)	> 100	> 100	> 100	> 100	> 100		> 100	> 100		> 100	> 100	> 100	> 100			
CC1(C)OCN(c2ccc(Cl)cc2)Cn2c1nc1ccccc12	> 100	> 100	> 100	> 100	> 100	> 100	> 100	> 54.1		> 100	12	> 100	> 100	> 100	> 100	> 100
CC(=O)Nc1ccc(-c2nnc(SCC(=O)Nc3ccc(C)cc3)o2)cc1	> 100	42	33.3	> 100	32.6		> 100	37.8		39.8	31.6	30	44.2	37.2		

From PubChem BioAssay (NCI)
